Measurements reported in patent US8133871B2, “Dihydropseudoerythromycin derivatives” (The Kitasato Institute, priority 2005, dated 2012).

How the values were obtained:
THP-1 cells = assay: THP-1 differentiation induction-promoting activity; type: cell-based; conditions: Homo sapiens, THP-1; lowest concentration necessary to show 50% activity relative to the activity value of erythromycin A at 100 μM; PMA 1-2 μM, 72-96 hr
Method: As one index of the anti-inflammatory action of the compound of the present invention, the differentiation induction-promoting activity of THP-1 cell was measured. The measurement was performed as shown below.
THP-1 cells (ATCC No. TIB-202) were adjusted to a concentration of 2×10^5 cells/ml with a medium (RPMI 1640), PMA was added thereto to a final concentration of 1-2 μM, and the mixture was dispensed to each well of a 96 well plate by 100 μl. A solution (100 μl) containing a test substance was adjusted to an appropriate concentration with the medium and added to each well. The mixture was stirred by gently shaking the plate, and incubated under 37° C., 5% CO2 conditions for 72-96 hr. Each well was washed with PBS, a medium containing the viable cell measurement reagent SF (Nacalai Tesque) was added at 100 μl/well and the mixture was incubated under the conditions of 37° C., 5% CO2 for 3-5 hr. The absorbance was measured with a plate reader.
In the Table, the activity value is the lowest concentration necessary for the test compound to show a 50% activity value relative to the activity value of erythromycin A at 100 μM in this experiment.
THP-1 differentiation induction-promoting activity: The lowest concentration necessary for each compound to show 50% activity relative to the activity value of erythromycin A at 100 μM.

A. calcoaceticus IFO2552 = assay: antibacterial activity, MIC (NCCLS method); type: cell-based; conditions: Acinetobacter calcoaceticus, IFO2552
Method: (§1) The antibacterial activity of the compound of the present invention and erythromycin were measured according to the antibacterial sensitivity measurement method of the US National Committee for Clinical Laboratory Standards (NCCLS). The values of minimum inhibitory concentration (MIC) (μg/ml) of each compound against bacteria are shown therein.

S. aureus Smith = assay: antibacterial activity, MIC (NCCLS method); type: cell-based; conditions: Staphylococcus aureus
Method: as §1

S. aureus FDA209P = assay: antibacterial activity, MIC (NCCLS method); type: cell-based; conditions: Staphylococcus aureus, FDA209P
Method: as §1

S. aureus 8325 (pEP2104) = assay: antibacterial activity, MIC (NCCLS method); type: cell-based; conditions: Staphylococcus aureus
Method: as §1

E. aerogen NCTC10006 = assay: antibacterial activity, MIC (NCCLS method); type: cell-based
Method: as §1

S. marcescens IFO12648 = assay: antibacterial activity, MIC (NCCLS method); type: cell-based; conditions: Serratia marcescens, IFO12648
Method: as §1

K. pneumoniae NCTN9632 = assay: antibacterial activity, MIC (NCCLS method); type: cell-based; conditions: Klebsiella pneumoniae, NCTN9632
Method: as §1

E. coli NIHJ JC-2 = assay: antibacterial activity, MIC (NCCLS method); type: cell-based; conditions: Escherichia coli, NIHJJC2
Method: as §1

E. faecalis ATCC21212 = assay: antibacterial activity, MIC (NCCLS method); type: cell-based; conditions: Enterococcus faecalis, ATCC21212
Method: as §1

[1] = tested on: trinitrobenzene sulfonate (TNBS)-induced colitis; assay: TNBS-induced colitis in rats, damage of the large intestine scored by the method of Wallace et al.; type: in vivo; conditions: rat TNBS colitis, oral, control 4.27 ± 0.38
Method: As an index of the treatment effect of the compound of the present invention on ulcerative colitis and Crohn's disease, an action on trinitrobenzene sulfonate (hereinafter to be indicated as TNBS)-induced colitis was examined using rats. Using 8-week-old male SD rats under pentobarbital anesthesia, TNBS solution was injected into the rectum of animals after fasting for 24 hr or longer and abstaining from water for 5 hr or longer. After injection, a silicone stopper was inserted into the anus to perform a treatment for 3.5-4 hr, whereby a colitis model was prepared. Two days after TNBS administration, model animals were selected based on the fecal occult blood score (fecal occult blood slide 5 shionogi II, Shionogi & Co. Ltd.), body weight and body weight changes, feeding condition, observation score of around anus and bleeding. A test drug was orally administered to the model animals two times a day for 6 days. On the next day of the final drug administration, the large intestine (about 15 cm from the anus) was removed after decapitation and exsanguination, and the level of damage was scored by the method of Wallace et al. (Wallace, J. L. et al, Inhibition of leukotriene synthesis markedly accelerates healing in a rat model of inflammatory bowel disease. Gastroenterology 96, 2936 (1989)), based on which the efficacy was evaluated.

S. epidermidis IFO12648 = assay: antibacterial activity, MIC (NCCLS method); type: cell-based; conditions: Staphylococcus epidermidis, IFO12648
Method: as §1

M. luteus ATCC9341 = assay: antibacterial activity, MIC (NCCLS method); type: cell-based; conditions: Micrococcus luteus, ATCC9341
Method: as §1

[2] = dose 10 × 2 (mg/kg)/day for 6 days
[3] = dose 30 × 2 (mg/kg)/day for 6 days

Row | Structure (SMILES) | minimal effective concentration (THP-1 cells) | MIC (A. calcoaceticus IFO2552) | MIC (S. aureus Smith) | MIC (S. aureus FDA209P) | MIC (S. aureus 8325 (pEP2104)) | MIC (E. aerogen NCTC10006) | MIC (S. marcescens IFO12648) | MIC (K. pneumoniae NCTN9632) | MIC (E. coli NIHJ JC-2) | MIC (E. faecalis ATCC21212) | Inflammation score in ulcer [1, 2] | Inflammation score in ulcer [1, 3] | MIC (S. epidermidis IFO12648) | MIC (M. luteus ATCC9341)
1 | CC[C@@H](O)[C@@](C)(O)[C@@H]1OC(=O)[C@H](C)[C@@H](O[C@H]2CC(C)(OC)[C@@H](O)C(C)O2)[C@H](C)[C@@H](O[C@@H]2OC(C)CC(N3CCOCC3)C2O)[C@]2(C)CC(C)C(O2)[C@@H]1C (some centres unmarked) [EM914, de(3′-dimethylamino)-3′-morpholino-9-dihydro-pseudoerythromycin A 6,9-epoxide] | 100 µM | > 128 µg/mL | > 128 µg/mL | > 128 µg/mL | > 128 µg/mL | > 128 µg/mL | > 128 µg/mL | > 128 µg/mL | > 128 µg/mL | > 128 µg/mL | 2.93 ± 0.41 | 2.69 ± 0.33 | – | –
2 | CC[C@@H](O)[C@@](C)(O)[C@@H]1OC(=O)[C@H](C)[C@@H](O[C@H]2CC(C)(OC)[C@@H](O)C(C)O2)[C@H](C)[C@H](O[C@@H]2OC(C)CC(N(C)Cc3ccc(Cl)cc3)C2O)[C@@]2(C)CC(C)C(O2)[C@@H]1C (some centres unmarked) [EM905, de(3′-N-methyl)-3′-N-(p-chlorobenzyl)-9-dihydro-pseudoerythromycin A 6,9-epoxide] | 3 µM | > 128 µg/mL | > 128 µg/mL | > 128 µg/mL | > 128 µg/mL | > 128 µg/mL | > 128 µg/mL | > 128 µg/mL | > 128 µg/mL | > 128 µg/mL | 3.29 ± 0.22 | 2.67 ± 0.40 | > 128 µg/mL | > 128 µg/mL
